Experimental data taken from patent US20220411381A1, “PYRIMIDINEDIONE DERIVATIVES” (Bayer Aktiengesellschaft, priority 2019, published 2022).

Target: T1, recombinant human BCAT1 enzyme (Homo sapiens, UniProt P54687)
T1 construct: purchased ATGen (South Korea) ATGP1479
T1 sequence (P54687 1-386): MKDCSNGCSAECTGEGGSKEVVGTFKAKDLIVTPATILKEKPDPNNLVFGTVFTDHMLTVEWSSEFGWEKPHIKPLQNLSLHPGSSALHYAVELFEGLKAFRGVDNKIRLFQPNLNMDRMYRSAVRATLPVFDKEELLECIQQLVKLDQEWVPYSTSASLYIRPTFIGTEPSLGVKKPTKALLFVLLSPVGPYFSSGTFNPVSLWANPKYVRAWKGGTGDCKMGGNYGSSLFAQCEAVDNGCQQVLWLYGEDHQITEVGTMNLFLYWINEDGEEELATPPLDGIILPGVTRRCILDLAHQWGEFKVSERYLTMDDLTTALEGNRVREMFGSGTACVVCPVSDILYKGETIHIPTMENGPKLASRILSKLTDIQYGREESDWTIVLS
Experiment: In vitro assay 1a: BCAT1 biochemical assay (coupled LeuDH/NADH fluorescence readout)
Conditions: read-out: BCAT1 IC50
Experimental: (§1) In Vitro Assay 1a and 1b: BCAT1 and BCAT2 Biochemical Assay
(§2) BOAT (Branched chain amino acid transferase) catalyzes transamination of the branched chain amino acid leucine to α-ketoisocaproate (KIC). The BOAT enzymatic reaction was measured in a coupled readout with leucine dehydrogenase (LeuDH) which catalyzes the Nicotinamide adenine dinucleotide (NADH) dependent reduction of KIC to leucine. NADH consumption is measured by fluorescent readout.
(§3) The biochemical reactions were performed at 32° C. in 384-well plates using a reaction volume of 51 μl and the following assay buffer conditions: 50 mM HEPES (2-[4-(2-hydroxyethyl)piperazin-1-yl]ethanesulfonic acid) pH 8.0, 50 mM aqueous solution of ammonium sulfate, 1 mM ethylenediaminetetraacetic acid, 2 mM dithiothreitol, 0.01% bovine serum albumine, 0.005% Brij 35 detergent, 0.5 μM PLP (pyridoxalphosphate), 10 μM NADH, and 50 μM α-ketoglutarate), and 100 μM leucine. […] Test compounds were used in a concentration range between 0.005 and 30 μM. The final DMSO concentration was 2%.
(§4) The reaction was initiated by addition of substrates (Leucine, α-KG, NADH).

Compound “4-[4-(Methanesulfonyl)-2,6-dioxo-3,6-dihydropyrimidin-1(2H)-yl]-5-methoxy-2-(2-methylphenoxy)benzonitrile (atrop 2) [Example 81]” has an IC50 of 2.5 µM.

Same assay, conditions: recombinant human BCAT1 […], 32° C., 100 μM leucine, 50 μM α-ketoglutarate, NADH fluorescence over 90 min; read-out: BCAT1 IC50

Going from Cc1ccccc1Oc1cc(-n2c(=O)cc(C(F)(F)F)[nH]c2=O)c(Br)cc1C#N (racemic) [Example 18, 5-Bromo-4-[2,6-dioxo-4-(trifluoromethyl)-3,6-dihydropyrimidin-1(2H)-yl]-2-(2-methylphenoxy)benzonitrile (rac)] to COc1cc(C#N)c(Oc2ccccc2Cl)cc1-n1c(=O)cc(C(F)(F)F)[nH]c1=O (single isomer, unassigned) [Example 17, 2-(2-Chlorophenoxy)-4-[2,6-dioxo-4-(trifluoromethyl)-3,6-dihydropyrimidin-1(2H)-yl]-5-methoxybenzonitrile (atrop 2)], the IC50 rises from 0.2 µM to 19 µM (95-fold).

Going from COc1cc(C#N)c(Oc2ccccc2C)cc1-n1c(=O)cc(C(F)F)[nH]c1=O (racemic) [Example 22, 4-[4-(Difluoromethyl)-2,6-dioxo-3,6-dihydropyrimidin-1(2H)-yl]-5-methoxy-2-(2-methylphenoxy)benzonitrile (rac)] to COc1cc(C#N)c(Oc2ccccc2C)cc1-n1c(=O)cc(-c2ccccc2)[nH]c1=O (single isomer, unassigned) [Example 43, 4-(2,6-Dioxo-4-phenyl-3,6-dihydropyrimidin-1(2H)-yl)-5-methoxy-2-(2-methylphenoxy)benzonitrile (atrop 1)], the IC50 rises from 0.15 µM to 5.5 µM (37-fold).

CC(=O)c1cc(C)cc(C)c1Oc1cc(-n2c(=O)cc(C(F)(F)F)[nH]c2=O)c(F)cc1C#N [Example 58, 2-(2-Acetyl-4,6-dimethylphenoxy)-4-[2,6-dioxo-4-(trifluoromethyl)-3,6-dihydropyrimidin-1(2H)-yl]-5-fluorobenzonitrile] and Cc1cc(C)c(Oc2cc(-n3c(=O)cc(C(F)(F)F)[nH]c3=O)c(F)cc2C#N)c(C)c1 [Example 62, 4-[2,6-Dioxo-4-(trifluoromethyl)-3,6-dihydropyrimidin-1 (2H)-yl]-5-fluoro-2-(2,4,6-trimethylphenoxy)benzonitrile] are within 1.5-fold of each other in IC50: 1.8 µM for the first, 2.5 µM for the second.

Compared with Cc1ccc(C)c(Oc2cc(-n3c(=O)cc(C(F)(F)F)[nH]c3=O)c(F)cc2C#N)c1C [Example 60, 4-[2,6-Dioxo-4-(trifluoromethyl)-3,6-dihydropyrimidin-1(2H)-yl]-5-fluoro-2-(2,3,6-trimethylphenoxy)benzonitrile], Cc1cc(Cl)cc(C)c1Oc1cc(-n2c(=O)cc(C(F)(F)F)[nH]c2=O)c(F)cc1C#N [Example 61, 2-(4-Chloro-2,6-dimethylphenoxy)-4-[2,6-dioxo-4-(trifluoromethyl)-3,6-dihydropyrimidin-1(2H)-yl]-5-fluorobenzonitrile] is 3-fold lower in IC50: 7.5 µM for the first, 2.5 µM for the second.

With Cc1cccc(Oc2cc(-n3c(=O)cc(C(F)(F)F)[nH]c3=O)c(F)cc2C#N)c1C [Example 67, 2-(2,3-Dimethylphenoxy)-4-[2,6-dioxo-4-(trifluoromethyl)-3,6-dihydropyrimidin-1(2H)-yl]-5-fluorobenzonitrile] the IC50 was 5.1 µM.

Target: T2, recombinant human BCAT2 enzyme (Homo sapiens, UniProt O15382)
T2 construct: purchased ATGen (South Korea) ATGP1523
T2 sequence (O15382 28-392): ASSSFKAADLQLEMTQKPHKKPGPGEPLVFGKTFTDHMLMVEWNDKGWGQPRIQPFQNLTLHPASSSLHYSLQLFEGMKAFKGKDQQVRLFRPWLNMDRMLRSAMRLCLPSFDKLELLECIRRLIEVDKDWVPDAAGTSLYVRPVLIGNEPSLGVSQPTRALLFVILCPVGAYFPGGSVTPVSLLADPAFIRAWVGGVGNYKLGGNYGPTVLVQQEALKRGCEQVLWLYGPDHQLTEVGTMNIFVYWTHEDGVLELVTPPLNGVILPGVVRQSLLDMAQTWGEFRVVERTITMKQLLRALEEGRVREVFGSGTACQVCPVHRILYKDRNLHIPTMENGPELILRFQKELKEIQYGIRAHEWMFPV
Experiment: In vitro assay 1b: BCAT2 biochemical assay (coupled LeuDH/NADH fluorescence readout); further: recombinant human BCAT2 0.75 nM
Conditions: recombinant human BCAT2 […], 32° C., 100 μM leucine, 50 μM α-ketoglutarate, NADH fluorescence over 90 min; read-out: BCAT2 IC50
Experimental: as §1, §2, §3, §4

Cc1ccccc1Oc1cc(-n2c(=O)cc(C(F)(F)F)[nH]c2=O)c(Cl)cc1C#N (racemic) [Example 11, 5-Chloro-4-[2,6-dioxo-4-(trifluoromethyl)-3,6-dihydropyrimidin-1(2H)-yl]-2-(2-methylphenoxy)benzonitrile (rac)] and Cc1ccccc1Oc1cc(-n2c(=O)cc(C(F)(F)F)[nH]c2=O)c(Br)cc1C#N (racemic) [Example 18, 5-Bromo-4-[2,6-dioxo-4-(trifluoromethyl)-3,6-dihydropyrimidin-1(2H)-yl]-2-(2-methylphenoxy)benzonitrile (rac)] are within 1.5-fold of each other in IC50: 2 µM for the first, 2.6 µM for the second.

Going from COc1cc(C#N)c(Oc2ccccc2C)cc1-n1c(=O)cc(C(F)(F)C(F)(F)F)[nH]c1=O (racemic) [Example 51, 4-[2,6-Dioxo-4-(pentafluoroethyl)-3,6-dihydropyrimidin-1(2H)-yl]-5-methoxy-2-(2-methylphenoxy)benzonitrile (rac)] to Cc1ccccc1Oc1cc(-n2c(=O)cc(C(F)(F)F)[nH]c2=O)c(Cl)cc1C#N (single isomer, unassigned) [Example 13, 5-Chloro-4-[2,6-dioxo-4-(trifluoromethyl)-3,6-dihydropyrimidin-1(2H)-yl]-2-(2-methylphenoxy)benzonitrile (atrop 2)], the IC50 falls from 4.33 µM to 2 µM (2.2-fold). The second is the more potent here.
